Columns and labels:
[1] = test system: hairpin derived from HIV RNA; test: BLI binding to unrelated hairpin derived from HIV RNA; conditions: SI Figure 1
pre-miRNA-21 = test: Circular dichroism melting of pre-miRNA-21; type: physicochemical; conditions: pre-miRNA-21 alone vs with 39, SI Figure 3
pre-miRNA-21 stem = test: BLI binding to pre-miRNA-21 stem missing the hairpin loop; conditions: relative to pre-miRNA-21 hairpin, SI Figure 1

Lys-DabG-hAlaA-Arg-Asp-DabA-Leu-hAlaG-Ala-Lys [Compound 39]
binding to unrelated hairpin derived from HIV RNA [1]: high affinity
shift in melting temperature of pre-miRNA-21 in the presence of peptide (pre-miRNA-21): no significant shift in melting temperature
reduction of affinity towards the pre-miRNA-21 stem, missing the hairpin loop (pre-miRNA-21 stem): over 50 fold

Source: article PMC7958298 (Journal of the American Chemical Society, 2020)
